Blank lines part the entries; values can stand above or below the compound they belong to.
Experiments:
[1] = Bioavailability in rat; assay type: ADME, organism-based; conditions: in vivo
[2] = biological target: T1, Dipeptidyl peptidase 4 (Homo sapiens, UniProt P27487)
Target sequence in this assay (P27487 whole entry, looked up): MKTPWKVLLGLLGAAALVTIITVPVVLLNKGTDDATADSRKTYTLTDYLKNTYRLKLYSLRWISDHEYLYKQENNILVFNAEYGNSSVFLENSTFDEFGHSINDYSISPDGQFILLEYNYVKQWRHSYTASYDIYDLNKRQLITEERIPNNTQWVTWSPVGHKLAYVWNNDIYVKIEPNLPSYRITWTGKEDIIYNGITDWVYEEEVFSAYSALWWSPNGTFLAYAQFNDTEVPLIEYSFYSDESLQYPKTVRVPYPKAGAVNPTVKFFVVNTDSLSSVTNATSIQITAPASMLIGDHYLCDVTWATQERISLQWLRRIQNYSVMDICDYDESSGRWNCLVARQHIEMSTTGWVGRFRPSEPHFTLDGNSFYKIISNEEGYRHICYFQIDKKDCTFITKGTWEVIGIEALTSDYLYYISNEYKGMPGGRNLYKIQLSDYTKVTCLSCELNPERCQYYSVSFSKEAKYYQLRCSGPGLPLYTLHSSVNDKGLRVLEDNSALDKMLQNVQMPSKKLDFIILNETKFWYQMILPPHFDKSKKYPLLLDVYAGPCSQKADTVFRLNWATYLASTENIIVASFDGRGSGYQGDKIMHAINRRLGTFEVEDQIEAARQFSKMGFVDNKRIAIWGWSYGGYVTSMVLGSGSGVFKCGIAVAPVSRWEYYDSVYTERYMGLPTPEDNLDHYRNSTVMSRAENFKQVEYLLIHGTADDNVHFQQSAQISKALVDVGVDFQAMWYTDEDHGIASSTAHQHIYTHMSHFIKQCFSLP

[3] = biological target: T1, Dipeptidyl peptidase 4; assay type: cell-based, Caco-2
Target sequence in this assay (P27487 whole entry): as the sequence (P27487 whole entry, looked up) above

[4] = test system: Rattus norvegicus; test: Antihyperglycemic activity in STZ-induced diabetic rat model assessed as reduction in blood glucose level at 100 mg/kg, po measured upto 24 hrs; assay type: functional; design: scale not given: the % may be the effect or the level left
[5] = test system: Rattus norvegicus; test: Anti-hyperglycemic activity in STZ-induced diabetic rat model assessed as improvement in glucose tolerance level at 30 mg/kg, po measured on day 10; assay type: functional; conditions: time 10 day
[6] = test system: Rattus norvegicus; test: Anti-hyperglycemic activity in STZ-induced diabetic rat model assessed as improvement in glucose tolerance level at 30 mg/kg, po measured on day 15; assay type: functional
[7] = organism: Homo sapiens; test: Selectivity index, ratio of IC50 for DPP-4 (unknown origin) to IC50 for DPP-8 (unknown origin)
[8] = Half life in mouse; assay type: ADME, organism-based; conditions: in vivo
[9] = biological target: T1, Dipeptidyl peptidase 4; remark: listed apart in the source
Target sequence in this assay (P27487 whole entry): as the sequence (P27487 whole entry, looked up) above

[10] = test system: Mus musculus; test: Antidiabetic activity in ICR mouse assessed as decrease in AUC of glucose at 3 mg/kg, po; assay type: functional; design: scale not given: the % may be the effect or the level left
[11] = test system: Mus musculus; test: Antidiabetic activity in C57BL/6J mouse assessed as decrease in AUC of glucose at 3 mg/kg, po; assay type: functional; design: scale not given: the % may be the effect or the level left
[12] = biological target: T1, Dipeptidyl peptidase 4; test: Inhibition of DPP4 (unknown origin) using Gly-Pro-AMC as substrate incubated for 30 mins by spectroscopic analysis
Target sequence in this assay (P27487 whole entry): as the sequence (P27487 whole entry, looked up) above

[13] = biological target: T1, Dipeptidyl peptidase 4; test: Inhibition of DPP-4 (unknown origin) at 100 uM relative to control
Target sequence in this assay (P27487 whole entry, looked up): as above

[14] = biological target: T1, Dipeptidyl peptidase 4; test: Inhibition of human recombinant DPP-4 at 100 uM using Gly-Pro-Aminomethylcoumarin as substrate by Spectra max fluorometer analysis relative to control
Target sequence in this assay (P27487 whole entry, looked up): as above

[15] = test system: Mus musculus; test: Hypoglycemic activity in C57BL/6J mouse assessed as reduction in blood glucose level at 10 mg/kg, po measured at 20 to 80 mins by OGTT analysis; assay type: functional; design: scale not given: the % may be the effect or the level left; conditions: time 20-80 min
[16] = biological target: T1, Dipeptidyl peptidase 4; test: Inhibition of human recombinant DPP-4 at 25 uM using Gly-Pro-Aminomethylcoumarin as substrate by Spectra max fluorometer analysis relative to control
Target sequence in this assay (P27487 whole entry, looked up): as above

[17] = Half life in ICR mouse at 15 mg/kg; assay type: ADME, organism-based; conditions: in vivo
[18] = Oral bioavailability in ICR mouse at 15 mg/kg; assay type: ADME, organism-based; conditions: in vivo
[19] = biological target: T2, Voltage-gated inwardly rectifying potassium channel KCNH2 (Homo sapiens, UniProt Q12809); test: Inhibition of hERG channel by patch clamp assay; assay type: toxicity
[20] = biological target: T2, Voltage-gated inwardly rectifying potassium channel KCNH2; test: Inhibition of hERG by thallium flux assay; assay type: toxicity; conditions: human
[21] = Blood glucose AUC in ICR mouse at 15 mg/kg; conditions: in vivo
[22] = biological target: T1, Dipeptidyl peptidase 4; remark: listed apart in the source
Target sequence in this assay (P27487 whole entry): as the sequence (P27487 whole entry, looked up) above

T2 sequence (Q12809 whole entry): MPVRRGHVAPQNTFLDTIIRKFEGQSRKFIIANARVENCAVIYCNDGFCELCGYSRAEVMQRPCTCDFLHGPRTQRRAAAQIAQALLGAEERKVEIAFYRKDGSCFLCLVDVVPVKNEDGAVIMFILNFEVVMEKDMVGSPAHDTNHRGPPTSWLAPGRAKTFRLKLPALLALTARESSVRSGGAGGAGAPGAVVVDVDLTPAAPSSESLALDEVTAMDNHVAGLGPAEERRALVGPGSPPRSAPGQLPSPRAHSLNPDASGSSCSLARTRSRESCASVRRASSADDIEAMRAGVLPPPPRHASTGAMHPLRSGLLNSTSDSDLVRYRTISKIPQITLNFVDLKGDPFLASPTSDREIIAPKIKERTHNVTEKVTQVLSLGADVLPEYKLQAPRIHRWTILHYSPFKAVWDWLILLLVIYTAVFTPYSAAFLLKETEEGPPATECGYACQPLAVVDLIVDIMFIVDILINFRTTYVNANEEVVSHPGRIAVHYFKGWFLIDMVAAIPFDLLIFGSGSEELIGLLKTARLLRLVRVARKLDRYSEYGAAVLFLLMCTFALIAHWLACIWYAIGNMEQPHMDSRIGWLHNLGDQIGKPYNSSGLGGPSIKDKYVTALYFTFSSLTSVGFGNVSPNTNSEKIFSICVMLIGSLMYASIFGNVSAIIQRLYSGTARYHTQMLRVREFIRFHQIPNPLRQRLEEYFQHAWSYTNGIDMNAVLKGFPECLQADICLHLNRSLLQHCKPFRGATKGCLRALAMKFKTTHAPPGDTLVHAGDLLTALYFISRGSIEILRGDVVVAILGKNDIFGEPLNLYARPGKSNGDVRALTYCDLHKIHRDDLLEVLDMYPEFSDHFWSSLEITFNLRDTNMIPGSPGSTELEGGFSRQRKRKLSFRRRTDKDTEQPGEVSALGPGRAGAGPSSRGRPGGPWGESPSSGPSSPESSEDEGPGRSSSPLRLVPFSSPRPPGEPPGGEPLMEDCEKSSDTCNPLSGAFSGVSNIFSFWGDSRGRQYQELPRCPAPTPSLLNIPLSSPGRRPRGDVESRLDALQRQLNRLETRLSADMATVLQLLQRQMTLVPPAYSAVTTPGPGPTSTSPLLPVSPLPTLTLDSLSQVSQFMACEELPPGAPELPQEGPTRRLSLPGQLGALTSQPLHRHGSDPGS

Compound: O=C(CN1CCN(c2cccc(Cl)c2)CC1)N1CCCCC1
Activity [4]: 24.6%
Activity [5]: 11.8%
Activity [6]: 19.4%

Compound: CC#CCn1c(N2CCC[C@@H](N)C2)cc(=O)n(Cc2cn(C/C=C/C(=O)O)nn2)c1=O
IC50 [9]: 9.56 nM
Activity [10]: 28.1%

Compound: NCC1CN(CCCc2ccc3c(c2)OCO3)C(=O)CC1c1cc(F)ccc1F (stereo unspecified)
Activity [11]: 38.9%

Compound: COc1ccc(CCNC(=S)N/C=C2\C(=O)Oc3ccccc3C2=O)cc1OC
inhibition [13]: > 50%

Compound: O=C(CN1CCN(c2ccnc3cc(Cl)ccc23)CC1)N1CCCC1
Activity [4]: 25.5%
Activity [5]: 14.6%
Activity [6]: 26.4%

Compound: O=C(CN1CCN(c2ccccn2)CC1)N1CCSC1
Activity [4]: 18.4%

Compound: O=C(CN1CCN(c2ccnc3cc(Cl)ccc23)CC1)N1CCOCC1
Activity [4]: 17.4%

Compound: N[C@@H](CC(=O)N1CCC[C@H]1CNC(=O)c1cc(S(N)(=O)=O)c(F)cc1F)[C@H]1CCc2cc(F)c(F)cc21
IC50 [3]: 0.87 nM
Activity [15]: 12%

Compound: N#Cc1ccc(C2=NNc3nc(Br)nn3C2)cc1
inhibition [13]: 48.3%

Compound: CC#CCn1c(N2CCC[C@@H](N)C2)cc(=O)n(Cc2cn(CCC(=O)O)nn2)c1=O
IC50 [9]: 12.4 nM
Activity [10]: 21.2%

Compound: COC(=O)C1=C(C)N=C2CC(C)C3(Oc4c(Cl)c(OC)cc(OC)c4C3=O)C(O)=C2C1c1cc2cccc3c2n(c1=O)CCC3 (stereo unspecified)
inhibition [13]: > 50%

The next lines start with results.

bioavailability [1]: 76%
IC5 [2]: 0.18 nM
Compound: Cl.N[C@@H](CC(=O)N1CCn2c(nnc2C(F)(F)F)[C@H]1c1ccc(F)cc1)Cc1cc(F)c(F)cc1F

IC50 [3]: 0.87 nM
Compound: N[C@@H](CC(=O)N1CCC[C@H]1CNC(=O)c1cccnc1)[C@H]1CCc2cc(F)c(F)cc21

Ratio IC50 [7]: > 1000
half-life [8]: < 24 h
Compound: N#C[C@@H]1CCCN1C(=O)[C@@H](N)CCC(=O)N1CCn2cc(C(F)(F)F)nc2C1.O=C(O)C(F)(F)F

IC50 [12]: 660 nM
Compound: O=C([C@H]1CC[C@@H](n2cc(-c3ccc(-c4ccccc4)cc3)nn2)C1)N1CCC(F)(F)C1

inhibition [14]: 26.7%
Compound: O=C(CNc1cc2ccc3ccccc3c2oc1=O)Nc1ccc(Cl)cc1

inhibition [14]: 1.3%
Compound: CCOC(=O)c1ccc2cc(OCC(=O)N3CCOCC3)c(=O)oc2c1

IC50 [3]: 0.87 nM
Compound: N[C@@H](CC(=O)N1CCC[C@H]1CNC(=O)c1cc(S(=O)(=O)N2CCOCC2)c(F)cc1F)[C@H]1CCc2cc(F)c(F)cc21

inhibition [14]: 1.3%
Compound: COC(=O)c1ccc2cc(OCC(=O)Nc3ccc(C)cc3)c(=O)oc2c1

inhibition [16]: 52.9%
Compound: Cc1cc(=O)oc2cc(NC(=O)CN3CCNCC3)ccc12

IC50 [3]: 0.87 nM
Compound: CCN(CC)S(=O)(=O)c1cccc(C(=O)NC[C@@H]2CCCN2C(=O)C[C@H](N)[C@H]2CCc3cc(F)c(F)cc32)c1

half-life [17]: 2.74 h
bioavailability [18]: 22.8%
glucose AUC [21]: 847 mmol/L/min
Compound: N#C[C@@H]1[C@@H]2CCC[C@@H]2CN1C(=O)[C@@H](N)Cc1cc(F)c(F)cc1F
IC50 [19]: > 40000 nM
IC5 [20]: 55.3 µM

IC50 [3]: 0.87 nM
Compound: N[C@@H](CC(=O)N1CCC[C@H]1CNC(=O)c1cccc(S(N)(=O)=O)c1)[C@H]1CCc2cc(F)c(F)cc21

IC50 [22]: 2700 nM
Compound: CO/N=C1\CN(c2nc3c(cc2F)c(=O)c(C(=O)O)cn3C2CC2)CC1CN (stereo unspecified) [GEMIFLOXACIN]

IC50 [12]: 720 nM
Compound: COC(=O)c1cn([C@@H]2CC[C@H](C(=O)N3CCC(F)(F)C3)C2)nn1

Ratio IC50 [7]: > 1000
half-life [8]: < 24 h
Compound: N#C[C@@H]1CCCN1C(=O)[C@@H](N)CCC(=O)N1CCn2cnnc2C1

inhibition [14]: 26.7%
Compound: Cc1ccc(NC(=O)CNc2cc3ccc4ccccc4c3oc2=O)cc1

From ChEMBL document CHEMBL5244277, “A review upon medicinal perspective and designing rationale of DPP-4 inhibitors” (Bioorg Med Chem, 2021)
